Measured values published in ChEMBL document CHEMBL1137902, “N-Sulfonyl homoserine lactones as antagonists of bacterial quorum sensing” (Bioorg Med Chem Lett, 2004).

Test system: Aliivibrio fischeri
Assay: Tested for the ability to interfere with the induction of luminescence by N-3-oxohexanoyl-L-homoserine lactone in the Vibrio fischeri QS system
Assay type: functional, organism-based

Compound | IC50
O=C(CC(=O)NC1CCOC1=O)Cc1ccccc1 (centres undefined) | 2 µM
O=C(CCCc1ccccc1)NC1CCOC1=O (centres undefined) | 2 µM
CCCCCS(=O)(=O)NC1CCOC1=O (centres undefined) | 2 µM
CCCCCCCS(=O)(=O)NC1CCOC1=O (centres undefined) | 9 µM
O=C1OCCC1NS(=O)(=O)CCCc1ccccc1 (centres undefined) | 20 µM
O=C1OCCC1NS(=O)(=O)CCc1ccccc1 (centres undefined) | 3 µM
CCCCCCCCS(=O)(=O)NC1CCOC1=O (centres undefined) | 10 µM
CCCCS(=O)(=O)NC1CCOC1=O (centres undefined) | 12 µM
CCCCCCS(=O)(=O)NC1CCOC1=O (centres undefined) | 6.5 µM
